This note sets out measurements from US20120070377A1, “COMPOUNDS AND BIOLOGICAL MATERIALS AND USES THEREOF” (priority 2009, published 2012).

This test has as its system SKOV3 cells. As to the kind of experiment: Confocal fluorescence microscopy, intracellular localisation with organelle co-stains. It counts as cell-based, human. As to the method: Imaging took place at the FILM Imperial College London on a LEICA SP5 MP inverted confocal microscope, at 37° C. and under a CO2 supplemented atmosphere. The water objective (63×) was used in all the experiments. Images were processed using the Leica software, Image J and Powerpoint.
Note: in any experiment where a photosensitiser is used on cells, the experiment is done under subdued lighting exposing the cells to as little light as possible and incubating wrapped in foil. Following addition of PS to cells, cells were no longer observed on the microscope.
Cells were plated on a Labt-Tek® 8 Chambered #1.0 Borosilicate Coverglass System. With some cell lines, it is often useful to use an attachment factor (200 μl, 30 mins, 37° C.) to coat the wells first.
Photosensitiser solutions in phenol red free DMEM (10% FBS, 1% P/S, 0.5% DMSO) were prepared fresh and pre-warmed to 37° C. for 15 mins. The cells were washed with media (1×200 μl) before adding the solutions (200 μl per chamber). Unless otherwise stated, the cells were grown over 20 hrs in a humidified atmosphere (37° C., 5% CO2). The cells were washed (2×200 μl) with prewarmed phenol red free DMEM
Lysotracker® Green DND-26 was diluted according to manufacturers indications (1 mM stock) and further diluted to twice the working concentration in DMEM (10% FBS, 1% P/S). For use for single colour staining, this was diluted with DMEM (10% FBS, 1% P/S) to a final concentration of 1 μM. When it was used for two colour staining with photosensitisers, a 2 μM solution was twice diluted in photosensitiser solution to give a 1 μM final concentration.
The cells were incubated for 15 mins at 4° C. and a further 30 mins at 37° C. before replacing with fresh medium and imaging.
MitoTracker® Green was diluted according to manufacturers indications (1 mM stock) and further diluted to twice the working concentration in DMEM (10% FBS, 1% P/S). For use for single colour staining, this was diluted with DMEM (10% FBS, 1% P/S) to a final concentration of 1 μM. When it was used for two colour staining with photosensitisers, a 2 μM solution was twice diluted in photosensitiser solution to give a 1 μM final concentration.
The cells were incubated for 15 mins at 4° C. and a further 1 hr at 37° C. before replacing with fresh medium and imaging.
ER-Tracker™ Green (BODIPY® FL glibenclamide) was diluted according to manufacturer's indications (1 mM stock) and further diluted to twice the working concentration in HBSS buffer (+2% HEPES). For use for single colour staining, this was diluted with HBSS (+2% HEPES) to a final concentration of 3 μM. When it was used for two colour staining with photosensitisers, a 6 μM solution was twice diluted in photosensitiser solution to give a 3 μM final concentration.
The cells were incubated for 15 mins at 4° C. and a further 1 hr at 37° C. before replacing with fresh buffer and imaging.
Bodipy® FL C5-ceramide complexed to BSA was diluted according to manufacturer's indications (0.5 mM stock) and further diluted to twice the working concentration in HBSS buffer (+2 HEPES). For use for single colour staining, this was diluted with HBSS (+2% HEPES) to a final concentration of 5 μM. When it was used for two colour staining with photosensitisers, a 10 μM solution was twice diluted in photosensitiser solution to give a 5 μM final concentration. The cells were incubated for 15 mins at 4° C. and a further 30 mins at 37° C. before washing with cold HBSS/HEPES (3×100 μl) and replacing with either HBSS/HEPES or photosensitiser solution and incubating at 37° C. for a further 30 mins before replacing with fresh buffer and imaging.

Consider `CCC1=C(C)c2cc3[nH]c(c(C)c3CC)c(C#CCCCC(=O)ON3C(=O)CCC3=O)c3nc(c4c5[nH]c(cc1n2)c(C)c5C(=O)C4)[C@@H](CCC(=O)OCc1cc(OCCOCCOCCOC)c(OCCOCCOCCOC)c(OCCOCCOCCOC)c1)[C@@H]3C` [compound 11, Meso 5-Ethynylhexanoyl succinimido ester pyropheophorbide a-3,4,5-(triethylene glycolmonomethylether) benzyl ester], for which, under “FIG. 20”, the “golgi localisation (co-localisation with Bodipy ceramide)” value is “significant yellow staining”. Also, the “mitochondrial localisation (co-localisation with Mito-tracker)” value (FIG. 21) was “significant yellow staining”. Further, the “lysosomal localisation (co-localisation with Lyso-tracker)” value (FIG. 22) is “some yellow staining”. Further, for the setting “FIG. 23”, the “ER localisation (co-localisation with ER-tracker)” value was “significant yellow staining”.
